Values joined by “and” are separate entries in the source; they are usually repeats but may differ in a detail not shown here. Equal entries are not always repeated.
How the values were obtained:
Assay type in all cases: physicochemical
[1] = Suspension aerosol particle size analysis (Malvern Mastersizer, laser diffraction); details: Example 7: 0.02 percent by weight in HFC 134a
Experimental: The particle size distribution of drug in the aerosol suspension is assayed by Malvern Mastersizer™ Particle Size Analyser using a suspending medium of 0.01 percent sorbitan trioleate in heptane.
Using a primed connector, shots are fired via an injection adapter into the Malvern sample cell containing the suspending medium. When a suitable level of obscuration (in the range 8.5-9) is achieved, analysis by laser diffraction is then performed.
The results below show the percentage by weight of particles having particle size below 10.7 μm, below 5.07 μm, and below 1.95 μm. The “Initial” entries represent the average of three independent determinations, and the “25° C.”, “CYC”, and “HHC” entries represent a single determination after one month under the indicated storage conditions.

[2] = Visual observation of suspension aerosol formulations (dispersion, flocculation, settling, creaming, suitability for metered dose inhaler); details: Example 3: 1:1 (W/W) HFC 134a/HFC 227 versus corresponding formulations in HFC 134a alone
Experimental: (§1) For each of the micronized drug substances A-G set forth below, formulations were prepared at drug concentrations of 0.017 percent, 0.039 percent, 0.083 percent, 0.41 percent, and 1.6 percent by weight based on the total weight of the formulation (corresponding to 0.20 mg/mL, 0.50 mg/mL, 1.0 mg/mL, 5.0 mg/Ml, and 20 mg/mL, respectively). The formulations were prepared by dispersing micronized drug in HFC 134a in a sealed 15 mL clear PET vial using ultrasonic energy.
For each propellant mix the range of drug concentrations used in Example 1 was used.
BDP formulations were prepared at 0.070 percent by weight (1.0 mg/mL) in HFC 227 and at 0.38 percent by weight (5.0 mg/mL) in a 1:1 mixture of HFC 227 and HFC 134a.
Formulations of salmeterol free base at 0.02 percent by weight and 0.05 percent by weight were prepared in HFC 134a and in HFC 227 by placing the drug and 5 mL of glass beads into a 15 mL glass vial, crimping on a continuous valve, and adding the appropriate amount of propellant. The formulations were shaken on a paint shaker for 10 min in order to disperse the drug.
The vial was then shaken on a paint shaker, chilled, and the contents transferred to 10 mL vials fitted with the metered dose valve. […] Valve delivery was measured through the life of the formulations.

[3] = Visual assessment of suspension formulations by time lapse photography 10 and 30 seconds after agitation; design: key: + = visually acceptable formulation; − = visually unacceptable formulation; ? = border line acceptable formulation
Experimental: as §1
Using time lapse photography 10 and 30 seconds after agitation the formulations were assessed as follows: […]
The formulations were photographed using time lapse photography at 10 and 30 seconds post agitation and were assessed as follows: […]

[4] = Twin stage impinger deposition of emitted dose; details: Example 7: 0.02 percent by weight in HFC 134a
Excerpt: Glass impinger apparatus A (BP198 Appendix XV11C) is used. To determine the deposition of the emitted dose, the apparatus is assembled as described. The oral adapter is attached to the throatpiece of the apparatus, and a suitable pump is connected to the outlet of the apparatus. The air flow through the apparatus is 60 ±5 liters per minute measured at the inlet of the throat. […] Ten shots are then fired via the adapter into the apparatus from the canister.
The apparatus is then dismantled and each stage washed with the appropriate amount of methanol. The washings are assayed by HPLC to give the content of the drug found at each stage and also the material balance.

[5] = Visual assessment of suspension formulations by time lapse photography 10 and 30 seconds after agitation; design: key: + = visually acceptable formulation; − = visually unacceptable formulation; ? = border line acceptable formulation; details: 10 and 30 seconds post agitation
[6] = 1 Month CYC (cycled between 15° C. and 37° C.)
[7] = 1 Month HHC (approximately 40° C. and 85 percent relative humidity)
[8] = Initial (average of three determinations)

## COc1ccc(C[C@@H](C)NC[C@H](O)c2ccc(O)c(NC=O)c2)cc1.COc1ccc(C[C@@H](C)NC[C@H](O)c2ccc(O)c(NC=O)c2)cc1.O=C(O)/C=C/C(=O)O [Formoterol fumarate]
[1]; [6]
  particles with particle size <1.95 μm: 36.1 Percent by weight and 32.5 Percent by weight
  particles with particle size <5.07 μm: 92.9 Percent by weight and 92.5 Percent by weight
  particles with particle size <10.7 μm: 99.8 Percent by weight
[1]; [7]
  particles with particle size <1.95 μm: 33.5 Percent by weight and 34.9 Percent by weight
  particles with particle size <5.07 μm: 93.1 Percent by weight and 92.4 Percent by weight
  particles with particle size <10.7 μm: 99.8 Percent by weight and 99.7 Percent by weight
[1]; 1 Month stored at 25° C.
  particles with particle size <1.95 μm: 36.3 Percent by weight and 31.7 Percent by weight
  particles with particle size <5.07 μm: 93.6 Percent by weight and 94.8 Percent by weight
  particles with particle size <10.7 μm: 99.8 Percent by weight and 99.9 Percent by weight
[1]; [8]
  particles with particle size <1.95 μm: 32.2 Percent by weight and 30.5 Percent by weight
  particles with particle size <5.07 μm: 93.4 Percent by weight and 92.6 Percent by weight
  particles with particle size <10.7 μm: 99.6 Percent by weight and 98.0 Percent by weight
[2]
  flocculation and sedimentation rate: reduced flocculation and a slower sedimentation rate
[3]; Example 1: drug concentration 0.017 % in HFC 134a alone
  visual assessment of formulation: +
[3]; Example 1: drug concentration 0.039 % in HFC 134a alone
  visual assessment of formulation: ?
[3]; Example 1: drug concentration 0.083 % in HFC 134a alone
  visual assessment of formulation: ?
[3]; Example 1: drug concentration 0.41 % in HFC 134a alone
  visual assessment of formulation: −
[3]; Example 1: drug concentration 1.63 % in HFC 134a alone
  visual assessment of formulation: +
[4]; 1 Month (25° C.)
  % Stem/Adapter: 52.0% and 52.5%
  %Stage 1: 16.7% and 23.9%
  %Stage 2: 31.3% and 23.6%
[4]; 1 Month (CYC)
  % Stem/Adapter: 16.8% and 24.6%
  %Stage 1: 53.6% and 47.6%
  %Stage 2: 29.7% and 27.8%
[4]; 1 Month (HHC)
  %Stage 1: 37.0% and 60.4%
  %Stage 2: 29.0% and 24.3%
[4]; Initial
  % Stem/Adapter: 26.0% and 24.7% and 28.5%
  %Stage 1: 37.5% and 35.3% and 36.7%
  %Stage 2: 36.5% and 40.0% and 34.8%
[5]; Example 3: drug concentration 0.015 % in 1:1 HFC 134a/HFC 227
  Assessment (visual): +
[5]; Example 3: drug concentration 0.038 % in 1:1 HFC 134a/HFC 227
  Assessment (visual): +
[5]; Example 3: drug concentration 0.076 % in 1:1 HFC 134a/HFC 227
  Assessment (visual): ?
[5]; Example 3: drug concentration 0.38 % in 1:1 HFC 134a/HFC 227
  Assessment (visual): ?
[5]; Example 3: drug concentration 1.5 % in 1:1 HFC 134a/HFC 227
  Assessment (visual): +

From US6743413B1, “Suspension aerosol formulations” (3M Company, priority 1991, dated 2004)
